# According to ChEMBL document CHEMBL1122449, “Anticoccidial derivatives of 6-azauracil. 5. Potentiation by benzophenone side chains” (J Med Chem, 1983):
# How the values were obtained:
# [1] = tested on: Eimeria tenella; test: Anticoccidial activity which controlled infection by Eimeria tenella in Leghorn cockerels; format: functional; conditions: read-out: MEC
# [2] = tested on: Eimeria necatrix; test: Anticoccidial activity which controlled infection by Eimeria necatrix in Leghorn cockerels; MEC means minimum effective concentration in parts per million.; format: functional; conditions: read-out: MEC
# [3] = Apparent pKa value was measured in 2:1 DMF/H2O.; format: physicochemical
# [4] = Plasma half-life of the compound.; format: ADME
# [5] = tested on: Eimeria acervulina; test: Anticoccidial activity which controlled infection by Eimeria acervulina in Leghorn cockerels; conditions: read-out: MEC
# [6] = Apparent pKa value was measured in 1:1 DMF/H2O.; format: physicochemical
smiles,measurement,setting,value
Cc1cc(-n2ncc(=O)[nH]c2=O)cc(C)c1C(O)c1ccc(Cl)cc1 (stereo not given),minimal effective concentration,[1],30 µg/mL
CS(=O)(=O)c1ccc(C(=O)c2ccc(-n3ncc(=O)[nH]c3=O)cc2Cl)cc1,minimal effective concentration,[2],> 15 µg/mL
Cc1cc(Cl)ccc1C(=O)c1ccc(-n2ncc(=O)[nH]c2=O)cc1C,minimal effective concentration,[1],15 µg/mL
Cc1cc(-n2ncc(=O)[nH]c2=O)ccc1C(=O)c1ccc(Cl)cc1,pH1/2,[3],7.6
same,half-life,[4],13 h
same,minimal effective concentration,[1],8 µg/mL
O=C(c1ccc(Cl)cc1Cl)c1ccc(-n2ncc(=O)[nH]c2=O)cc1Cl,minimal effective concentration,[1],4 µg/mL
CC(=O)c1ccc(-n2ncc(=O)[nH]c2=O)cc1,pH1/2,[3],6.53
same,minimal effective concentration,[1],> 250 µg/mL
O=C(c1ccccc1)c1ccc(-n2ncc(=O)[nH]c2=O)cc1,pH1/2,[3],7.79
same,minimal effective concentration,[1],60 µg/mL
COc1ccc(C(=O)c2ccc(-n3ncc(=O)[nH]c3=O)cc2)cc1,minimal effective concentration,[1],125 µg/mL
Cc1cc(-n2ncc(=O)[nH]c2=O)ccc1C(O)c1ccc(Cl)cc1 (stereo not given),minimal effective concentration,[1],15 µg/mL
O=C(c1ccc(-n2ncc(=O)[nH]c2=O)cc1)c1cccs1,minimal effective concentration,[1],> 250 µg/mL
CSc1ccc(C(=O)c2ccc(-n3ncc(=O)[nH]c3=O)cc2Cl)cc1,minimal effective concentration,[5],> 30 µg/mL
O=C(c1ccc(Cl)cc1)c1ccc(-n2ncc(=O)[nH]c2=O)cc1Cl,pH1/2,[3],7.16
same,half-life,[4],20 h
same,minimal effective concentration,[1],2 µg/mL
Cc1cc(-n2ncc(=O)[nH]c2=O)ccc1Cc1ccccc1,minimal effective concentration,[1],30 µg/mL
O=c1cnn(-c2ccc(C(O)c3ccc(Cl)cc3)c(Cl)c2)c(=O)[nH]1 (stereo not given),minimal effective concentration,[1],2 µg/mL
Cc1cc(-n2ncc(=O)[nH]c2=O)cc(Cl)c1C(=O)c1ccc(Cl)cc1,half-life,[4],21 h
same,minimal effective concentration,[1],8 µg/mL
O=C(c1ccccc1)c1cccc(-n2ncc(=O)[nH]c2=O)c1,minimal effective concentration,[1],> 250 µg/mL
Cc1cc(-n2ncc(=O)[nH]c2=O)cc(C)c1C(=O)c1ccc(Cl)cc1,minimal effective concentration,[1],15 µg/mL
CC(=O)c1ccc(-n2ncc(=O)[nH]c2=O)cc1Cl,minimal effective concentration,[1],125 µg/mL
O=C(c1ccccc1)c1ccc(-n2ncc(=O)[nH]c2=O)cc1Cl,pH1/2,[3],7.04
same,minimal effective concentration,[1],15 µg/mL
Cc1cc(C)c(C(=O)c2ccc(-n3ncc(=O)[nH]c3=O)cc2)c(C)c1,pH1/2,[3],7.16
same,minimal effective concentration,[1],> 250 µg/mL
O=C(c1ccccc1)c1cc(-n2ncc(=O)[nH]c2=O)ccc1Cl,minimal effective concentration,[1],> 250 µg/mL
Cc1cc(-n2ncc(=O)[nH]c2=O)ccc1C(O)c1ccccc1 (stereo not given),pH1/2,[6],7.37
same,minimal effective concentration,[1],30 µg/mL
O=C(c1ccc(Cl)cc1)c1ccc(-n2ncc(=O)[nH]c2=O)cc1,minimal effective concentration,[1],30 µg/mL
O=c1cnn(-c2ccc(-c3ccc4oc5ccc(Cl)cc5c(=O)c4c3)cc2)c(=O)[nH]1,minimal effective concentration,[1],> 250 µg/mL
CCCC(=O)c1ccc(-n2ncc(=O)[nH]c2=O)cc1,minimal effective concentration,[1],> 60 µg/mL
Cc1cc(-n2ncc(=O)[nH]c2=O)ccc1C(=O)c1ccc(C#N)cc1,pH1/2,[3],7.08
same,minimal effective concentration,[1],125 µg/mL
Cc1cc(-n2ncc(=O)[nH]c2=O)ccc1C(=O)c1ccccc1Cl,pH1/2,[3],7.08
same,minimal effective concentration,[1],60 µg/mL
Cc1cc(-n2ncc(=O)[nH]c2=O)ccc1C(=O)c1ccc(Cl)cc1Cl,half-life,[4],45 h
same,minimal effective concentration,[1],4 µg/mL
Cc1cc(Br)ccc1C(=O)c1ccc(-n2ncc(=O)[nH]c2=O)cc1Cl,minimal effective concentration,[1],8 µg/mL
Cc1ccc(C(=O)c2ccc(-n3ncc(=O)[nH]c3=O)cc2)cc1,minimal effective concentration,[1],> 250 µg/mL
Cc1cc(-n2ncc(=O)[nH]c2=O)ccc1C(=O)c1ccccc1,pH1/2,[6],7.02
same,minimal effective concentration,[1],8 µg/mL
